Columns and labels:
Type in all cases: cell-based, human
p-MED1 (p-T1457 MED1) = test: Immunoblot of p-MED1 in AR-positive PCa cell lines (VCaP, LNCaP, 22RV1); conditions: LNCaP
Protocol: Cell lysates were prepared with RIPA buffer (Boston Bioproducts, BP-115DG)-10 mM Tris-HCl pH 7.5, 1 mM EDTA, 400 mM NaCl, 0.5% NP-40 and 1 mM DTT, supplemented with protease inhibitor cocktail (Pierce, A32965) and phosphatase inhibitor (Thermo, 1861280). For immunoblotting 200 μg total protein extract was boiled in sample buffer and 15-25 μg aliquots were separated by SDS-PAGE and transferred onto Polyvinylidene Difluoride membrane (GE Healthcare, IPVH00010). The membrane was incubated for one hour in blocking buffer [Tris-buffered saline, 0.1% Tween (TBS-T), 5% nonfat dry milk followed by overnight incubation on a rocker at 4° C. with the primary antibody. Following a wash with TBS-T, the blot was incubated with horseradish peroxidase-conjugated secondary antibody for 2 hrs on a rocker at room temperature. The blots were washed again and signals were visualized using enhanced chemiluminescence system as per manufacturer's protocol (GE Healthcare) or Kwik Quant Imager (Kindle Biosciences). Primary antibodies used in the immunoblotting (IB), immunoprecipitation (IP), and Chromatin Immunoprecipitation sequencing (ChIP-seq) assays are as follows: AR_IP, IB, ChIP-Seq (Millipore, 06-680); pS81-AR_IB (Millipore, 07-1375-EMD); RNA Pol II_IP, IB (Abcam, ab5408); ERG_IB (Abcam, a92513); PSA_IB (Dako, A0562); H3-acetyl K27_IP, IB, ChIP Seq (Abcam, ab32104) cPARP_IB (Cell Signaling Technology, 9541s); Cleaved caspase-3_IB (Cell Signaling Technology, 9664t); CDK7_IP, IB (Cell Signaling Technology, 2916s); CDK9_IP, IB (Cell Signaling Technology, 2316s); CDK12_IB (Cell Signaling Technology, 11973S); CDK13_IB (Sigma Cat. #ABE1860); Cyclin H_IB (Cell Signaling Technology, 2927T); HA_IP, IB (Cell Signaling Technology, 2367s); ERK1/2_IP, IB (Cell Signaling Technology, 9107s); phospho-ERK1/2_IB (Cell Signaling Technology, 9101s); phospho-Threonine_IB (Cell Signaling Technology, 9381s); PP2A alpha_IB (Abcam, ab32104); phospho-MED1_IB (Abcam, ab60950); Anti-GST_IB (Cell Signaling Technology, 2624); Anti-AKT_IB (Cell Signaling Technology, 9272); Anti-phosphoAKT_IB(Cell Signaling Technology, 4060); Anti-phospho-AR (Ser-515) _IB (Abeam, ab128250); Anti-RNA Pol 'LIB (Abeam, ab5408); Anti-phospho-pol II (Ser-5)_IB (Abeam, ab ab5095); Anti-phospho-CDK7 (Tlu-170) _IB (Millipore, ABS567); MED1_IP, IB, ChIP Seq (Bethyl, abA300-793A), Ki67_IHC (Cell Signaling Technology, 9661), and GAPDH (14C10), IB (Cell Signaling Technology, 3683s) for loading control.

[1] = system: chromatin-bound p-MED1/MED1; test: Chromatin-bound protein extraction and immunoblot; conditions: DHT-stimulated LNCaP, 6 h; THZ1 100 nM, enzalutamide 5 μM
Protocol: Chromatin bound protein extraction was performed following the protocol described in Pawar et al. Briefly, 10 million cells were collected and washed with DPBS, and were resuspended in 250 μl Buffer A (10 mM HEPES pH 7.9, 10 mM KCl, 1.5 mM MgCl2, 0.34 M sucrose, 10% glycerol, 1 mM DTT) supplemented with 0.1% TritonX-100 and incubated on ice for 10 min. The nuclei pellet was collected by centrifugation at 1300×g for 5 min at 4° C., washed in Buffer A and centrifuged again with the same settings. The nuclear pellet was then resuspended in Buffer B (3 mM EDTA, 0.2 mM EGTA, 1 mM DTT) and incubated on ice for 30 min. The chromatin pellet was collected by centrifugation at 1700×g for 5 min at 4° C., washed in Buffer B and centrifuged again with the same settings. The proteins were incubated on ice in Buffer B with 150 mM NaCl for 20 min and centrifuged at 1700×g for 5 min to remove proteins soluble in 150 mM salt concentrations. The pellet was then incubated in Buffer B with 300 mM NaCl on ice for 20 min and centrifuged again at 1700×g to obtain the final chromatin pellet. The chromatin pellet was dissolved in sample buffer, sonicated for 15 seconds, and boiled at 95° C. for 10 min. Samples were analyzed using Immunoblot analysis as described previously. All buffers were supplemented with Pierce protease inhibitor and Halt protease & phosphatase inhibitors.

[2] = system: MED1 and AR recruitment to the chromatin; test: ChIP-seq of genome-wide MED1 and AR binding; conditions: VCaP, 10 nM DHT plus 5 μM enzalutamide, 12 h
Protocol: ChIP was performed using iDeal ChIP-seq Kit for Transcription Factors (Diagenode, C01010170) according to manufacturer's protocol. In brief, the cells were crosslinked with 1% formaldehyde in culture medium for 10 min at room temperature. Cross-linking was terminated by the addition of 1/10 volume 1.25 M glycine for 5 min at room temperature followed by cell lysis and sonication (Bioruptor, Diagenode), resulting in an average chromatin fragment size of 200 bp. Chromatin equivalent to 5×10^6 cells was isolated and incubated with 10 μg antibody overnight at 4° C. (MED1, H3-acetyl K27, AR, and IgG (Diagenode). ChIP-seq libraries were prepared from the ChIP-enriched DNA samples using the TruSeq ChIP Library Preparation Kit (Illumina, IP-202-1012, IP-202-1024) and protocol. In brief, ChIP-enriched DNA (1-10 ng) was converted to blunt-ended fragments. A single A-base was added to fragment ends followed by ligation of Illumina adaptors. The adaptor-modified DNA fragments were enriched by PCR using the Illumina Barcode primers and Phusion DNA polymerase. PCR products were size selected using 3% NuSieve agarose gels (Lonza) followed by gel extraction using QIAEX II reagents (QIAGEN). Libraries were quantified with the Bioanalyzer 2100 (Agilent) and sequenced on the Illumina NextSeq 500 Sequencer (75 nucleotide read length).
Sequencing reads were quality checked with FASTQC (www.bioinformatics.babraham.ac.uk/projects/fastqc) and aligned to the GRCh37 (release 27) genome using the STAR v2.5.1 aligner with default settings. PCR duplicate reads in the aligned bam files were removed using samtools, bam files were converted to CPM normalized bigwig tracks using deeptools, and viewed using the Integrated Genomics Viewer or the UCSC genome browser. Single end reads were extended up to the fragment length (200 bp) along the read direction.
The enrichment peaks for the various transcription factors and histone marks were computed using MACS2, with default settings. Regions found to ubiquitously enriched across a number of next-generation sequencing experiments, also known as the blacklisted peaks (sites.google.com/site/anshulkundaje/projects/blacklists), were excluded in all subsequent analysis.

AR target genes = test: qRT-PCR of DHT-induced AR target gene expression; conditions: LNCaP and VCaP, 10 μM enzalutamide
Protocol: For AR signaling stimulation experiments, cells were plated in complete media at required confluency. After 24 h cells were washed with DPBS and cultured in RPMI/DMEM without Phenol Red (Invitrogen, 11835030) and 10% charcoal-dextran stripped FBS (Gemini BioProducts, 100-119) for 72 h. Cells were then stimulated with 10 nM DHT for the specific time points.
Total RNA was isolated from cells using miRNeasy Mini Kit (Qiagen, 74106) and cDNA was synthesized from 1 μg total RNA using SuperScriptIV (Life Technologies, 18090200). qRT-PCR was performed using Fast SYBR Master Mix (Life Technologies, 4385617) or Taqman Fast Advance MMIX (Life Technologies, 4444964), and analyzed on QuantStudio3 (Applied Biosystems, USA). The target mRNA expression was quantified using ΔΔCt method, as normalized to GAPDH transcript levels. Primers were designed using Primer3 Input (version 0.4.0) (bioinfo.ut.ee/primer3-0.4.0/primer3) and synthesized by Integrated DNA Technologies.

COc1ccccc1-c1cc(Nc2cccc(CS(N)(=O)=O)c2)ncn1 [LDC]
p-MED1 levels (p-MED1 (p-T1457 MED1); VCaP, 22RV1, standard culture conditions, 24 h (THZ1 and LDC also with DHT stimulation)): no such effect on p-MED1 levels

CN(C)CCCC(=O)Nc1ccc(C(=O)Nc2cccc(Nc3ncc(Cl)c(-c4c[nH]c5ccccc45)n3)c2)cc1 [THZ1-R]
MED1 phosphorylation (p-MED1 (p-T1457 MED1); 100 nM, 12 h): does not affect MEDI phosphorylation

CNC(=O)c1ccc(N2C(=S)N(c3ccc(C#N)c(C(F)(F)F)c3)C(=O)C2(C)C)cc1F [enzalutamide]
chromatin-bound levels of p-MED1/MED1 [1]: unable to completely dissociate p-MED1 from the chromatin | MED1 chromatin association (ChIP-seq) [2]: completely abolished | average ChIP-seq signal for AR [2]: significantly reversed | DHT-induced AR target gene expression (AR target genes): AR target reversal
